In patent US12492188B2, “1H-benzo[D]imidazole derivatives as TLR9 inhibitors for the treatment of fibrosis” (BRISTOL-MYERS SQUIBB COMPANY, priority 2020, dated 2025) one finds IC50 data, which are given here for ten molecules.

What all share (type): cell-based
In one test the target is T1, human TLR9 (Homo sapiens, UniProt Q9NR96).
T1 construct: host or cells: HEK-Blue cells (HEK293-derived reporter line)
T1 sequence (Q9NR96 26-1032): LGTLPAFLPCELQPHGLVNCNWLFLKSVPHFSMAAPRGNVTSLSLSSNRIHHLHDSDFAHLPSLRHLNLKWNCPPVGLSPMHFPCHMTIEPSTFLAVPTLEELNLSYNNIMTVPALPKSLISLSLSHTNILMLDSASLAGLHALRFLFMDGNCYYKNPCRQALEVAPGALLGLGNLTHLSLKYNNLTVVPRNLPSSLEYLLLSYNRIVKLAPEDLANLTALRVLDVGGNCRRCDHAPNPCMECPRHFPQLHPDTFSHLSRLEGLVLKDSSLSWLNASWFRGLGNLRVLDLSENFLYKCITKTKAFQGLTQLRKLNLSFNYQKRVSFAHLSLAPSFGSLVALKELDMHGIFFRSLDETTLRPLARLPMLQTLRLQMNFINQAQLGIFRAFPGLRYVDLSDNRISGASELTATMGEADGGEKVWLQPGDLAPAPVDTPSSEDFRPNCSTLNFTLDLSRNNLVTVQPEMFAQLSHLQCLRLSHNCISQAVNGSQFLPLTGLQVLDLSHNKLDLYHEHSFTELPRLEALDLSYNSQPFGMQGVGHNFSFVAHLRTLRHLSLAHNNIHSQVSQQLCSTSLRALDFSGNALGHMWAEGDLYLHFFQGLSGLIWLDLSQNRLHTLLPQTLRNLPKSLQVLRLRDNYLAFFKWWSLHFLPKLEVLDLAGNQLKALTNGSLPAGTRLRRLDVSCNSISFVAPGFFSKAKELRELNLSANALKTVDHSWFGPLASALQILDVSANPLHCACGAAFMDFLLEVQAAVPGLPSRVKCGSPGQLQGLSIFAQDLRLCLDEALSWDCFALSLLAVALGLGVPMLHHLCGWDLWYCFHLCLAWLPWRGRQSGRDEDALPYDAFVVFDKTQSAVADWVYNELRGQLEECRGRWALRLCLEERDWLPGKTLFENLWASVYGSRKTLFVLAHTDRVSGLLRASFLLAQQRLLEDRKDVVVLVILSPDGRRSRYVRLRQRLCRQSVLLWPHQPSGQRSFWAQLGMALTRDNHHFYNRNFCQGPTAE
Description: TLR9 inhibition reporter assay (HEK-Blue cells, secreted embryonic alkaline phosphatase reporter). In short, it runs like this: (§1)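 HEK-Blue cells expressing human TLR7, TLR8 or TLR9 with an NF-κB/AP-1-driven SEAP reporter were pretreated with compound (0.05 nM–50 μM final) for 30 min at room temperature. Agonists were gardiquimod 7.5 μM for TLR7, R848 15.9 μM for TLR8 and ODN2006 5 nM for TLR9. SEAP was read after 22 h at 37 °C, and inhibition was calculated relative to agonist-plus-DMSO and known-inhibitor controls.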
(In a reporter assay the amount or activity of a reporter protein is the signal.)

The next test deals with T2, human TLR7 (Homo sapiens, UniProt Q9NYK1).
T2 construct: host or cells: HEK-Blue cells (HEK293-derived reporter line)
T2 sequence (Q9NYK1 27-1049): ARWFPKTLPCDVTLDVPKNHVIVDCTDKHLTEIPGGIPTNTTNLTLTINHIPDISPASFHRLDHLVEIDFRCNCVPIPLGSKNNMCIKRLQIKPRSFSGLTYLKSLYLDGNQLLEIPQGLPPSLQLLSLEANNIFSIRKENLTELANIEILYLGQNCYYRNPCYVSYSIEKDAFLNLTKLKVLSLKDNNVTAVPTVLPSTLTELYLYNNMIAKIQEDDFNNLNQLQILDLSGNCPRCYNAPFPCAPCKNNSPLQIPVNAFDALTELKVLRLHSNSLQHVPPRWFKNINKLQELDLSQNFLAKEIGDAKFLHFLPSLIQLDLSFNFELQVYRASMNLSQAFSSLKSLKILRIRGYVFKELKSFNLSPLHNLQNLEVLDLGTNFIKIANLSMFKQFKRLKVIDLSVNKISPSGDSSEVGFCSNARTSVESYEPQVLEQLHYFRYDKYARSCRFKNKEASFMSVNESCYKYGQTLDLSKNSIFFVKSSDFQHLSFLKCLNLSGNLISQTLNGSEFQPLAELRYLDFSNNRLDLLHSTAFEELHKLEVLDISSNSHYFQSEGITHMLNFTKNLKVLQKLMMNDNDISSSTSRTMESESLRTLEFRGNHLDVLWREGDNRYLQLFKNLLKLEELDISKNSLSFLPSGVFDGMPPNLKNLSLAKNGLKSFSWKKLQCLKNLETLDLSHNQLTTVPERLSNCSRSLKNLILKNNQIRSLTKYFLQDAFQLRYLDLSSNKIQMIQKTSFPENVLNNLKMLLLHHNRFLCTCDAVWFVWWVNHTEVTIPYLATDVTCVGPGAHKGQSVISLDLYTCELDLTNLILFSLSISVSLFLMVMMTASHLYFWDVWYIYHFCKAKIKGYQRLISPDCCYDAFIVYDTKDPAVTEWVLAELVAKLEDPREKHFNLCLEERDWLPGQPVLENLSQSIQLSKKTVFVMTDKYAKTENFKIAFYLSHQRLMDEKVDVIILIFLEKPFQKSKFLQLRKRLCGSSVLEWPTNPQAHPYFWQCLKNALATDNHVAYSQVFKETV
Description: TLR7 inhibition reporter assay (HEK-Blue cells, secreted embryonic alkaline phosphatase reporter). Particulars: HEK-Blue cells overexpressing human TLR7, stimulated with gardiquimod 7.5 μM; read-out: TLR 7 IC50. In short, it runs like this:
as §1

A further test addresses T3, human TLR8 (Homo sapiens, UniProt Q9NR97).
T3 construct: host or cells: HEK-Blue cells (HEK293-derived reporter line)
T3 sequence (Q9NR97 27-1041): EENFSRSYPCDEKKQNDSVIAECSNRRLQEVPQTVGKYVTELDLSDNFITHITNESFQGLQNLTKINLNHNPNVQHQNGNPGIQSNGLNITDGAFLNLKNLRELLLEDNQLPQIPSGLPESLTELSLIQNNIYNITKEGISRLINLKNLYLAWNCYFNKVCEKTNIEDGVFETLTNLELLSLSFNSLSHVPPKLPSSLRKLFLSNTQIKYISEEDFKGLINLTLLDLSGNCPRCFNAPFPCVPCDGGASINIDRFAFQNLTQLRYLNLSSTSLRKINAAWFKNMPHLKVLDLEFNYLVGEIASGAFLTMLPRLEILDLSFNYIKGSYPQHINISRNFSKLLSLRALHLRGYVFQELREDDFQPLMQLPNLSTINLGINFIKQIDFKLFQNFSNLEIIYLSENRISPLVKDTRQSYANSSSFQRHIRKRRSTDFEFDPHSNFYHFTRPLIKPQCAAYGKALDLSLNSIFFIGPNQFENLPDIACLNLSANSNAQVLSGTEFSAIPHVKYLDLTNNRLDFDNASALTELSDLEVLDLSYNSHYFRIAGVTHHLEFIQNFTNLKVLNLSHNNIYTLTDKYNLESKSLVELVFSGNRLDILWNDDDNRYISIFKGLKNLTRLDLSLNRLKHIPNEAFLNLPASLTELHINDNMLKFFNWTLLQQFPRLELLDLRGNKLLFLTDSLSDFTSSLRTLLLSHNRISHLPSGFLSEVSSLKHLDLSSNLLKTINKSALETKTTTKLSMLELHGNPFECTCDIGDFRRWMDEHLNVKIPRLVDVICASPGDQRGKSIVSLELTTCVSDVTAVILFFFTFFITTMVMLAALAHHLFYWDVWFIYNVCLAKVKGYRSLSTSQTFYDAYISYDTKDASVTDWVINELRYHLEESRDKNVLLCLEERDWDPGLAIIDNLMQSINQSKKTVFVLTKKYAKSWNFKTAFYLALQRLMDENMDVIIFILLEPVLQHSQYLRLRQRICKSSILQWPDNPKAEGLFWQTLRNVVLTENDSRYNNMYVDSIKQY
Description: TLR8 inhibition reporter assay (HEK-Blue cells, secreted embryonic alkaline phosphatase reporter). The settings on record: HEK-Blue cells overexpressing human TLR8, stimulated with R848 15.9 μM; read-out: TLR 8 IC50. The method, boiled down: as §1

Where [1] appears, read: HEK-Blue cells overexpressing human TLR9, stimulated with ODN2006 5 nM, 22 hour incubation, reporter readout.
[2] abbreviates: HEK-Blue cells overexpressing human TLR9, stimulated with ODN2006 5 nM, read-out: TLR 9 IC50.
The mark [3] stands for this setting: HEK-Blue human TLR9 reporter cells.

pIC50: −log10 of the molar value. Like-named read-outs stand apart in the source and are kept apart here.

As usually defined, the pIC50 is −log10 of the IC50, conventionally taken in molar units. Regarding `COc1ccc(-c2nc3c(C)cc(C4CCN(C5CCN(C(C)C)CC5)CC4)cc3n2C)cc1F` [Example 23, 2-(3-fluoro-4-methoxyphenyl)-6-(1′-isopropyl-[1,4′-bipiperidin]-4-yl)-1,4-dimethyl-1H-benzo[d]imidazole], the pIC50 against human TLR9 (setting [1]) is 6.80; on human TLR9 (setting [2]) it was 6.80; at human TLR7 it was 5.06; on human TLR8 it was < 4.30.
Turning to `Cn1c(-c2ccc(S(C)(=O)=O)cc2)nc2cc(F)c(C3CCN(C4CC5CCC(C4)N5CC4CC4)CC3)cc21` (stereo not drawn) [Example 230, 6-(1-(8-(cyclopropylmethyl)-8-azabicyclo[3.2.1]octan-3-yl)piperidin-4-yl)-5-fluoro-1-methyl-2-(4-(methylsulfonyl)phenyl)-1H-benzo[d]imidazole], the pIC50 on human TLR9 is 7.44; at human TLR9 (setting [2]), 7.44; at human TLR7, 4.49; on human TLR8 it was < 4.30.
Turning to `Cn1c(-c2ccc(S(C)(=O)=O)cc2)nc2cc(C3CCN(C4CC5CCC(C4)N5C4COC4)CC3)c(F)cc21` (single isomer, unassigned) [Example 254, 6-fluoro-1-methyl-2-(4-(methylsulfonyl)phenyl)-5-(1-(8-(oxetan-3-yl)-8-azabicyclo[3.2.1]octan-3-yl)piperidin-4-yl)-1H-benzo[d]imidazole], the pIC50 against human TLR9 was 5.28; at human TLR9 (setting [2]), 5.27; at human TLR7 it was < 4.30; at human TLR8, < 4.30.
Regarding `Cc1cc(-c2ccc(CN3CCC(N4CCC4)CC3)cc2)cc2c1nc(-c1ccc(S(C)(=O)=O)cc1)n2C` [Example 402, 6-(4-((4-(azetidin-1-yl)piperidin-1-yl)methyl)phenyl)-1,4-dimethyl-2-(4-(methylsulfonyl)phenyl)-1H-benzo[d]imidazole], the pIC50 at human TLR9 (setting [1]) is 8.41; at human TLR9 (setting [2]), 8.41; on human TLR7, 6.22; at human TLR8, 5.24.
On to `COc1cc(-c2nc3c(C)cc(C4CCN(C5CCN(C(C)C)CC5)CC4)cc3n2C)cn2ncnc12` [Example 125, 6-(6-(1′-isopropyl-[1,4′-bipiperidin]-4-yl)-1,4-dimethyl-1H-benzo[d]imidazol-2-yl)-8-methoxy-[1,2,4]triazolo[1,5-a]pyridine], for which the pIC50 is 7.55 at human TLR9 (setting [1]), 6.22 on human TLR7 and 5.68 on human TLR8.
Take `CC(C)CN1C2CCC1CC(N1CCC(c3cc(F)c4nc(-c5ccc(S(C)(=O)=O)cc5)n(C)c4c3)CC1)C2` (stereo not drawn) [Example 285, 4-fluoro-6-(1-(8-isobutyl-8-azabicyclo[3.2.1]octan-3-yl)piperidin-4-yl)-1-methyl-2-(4-(methylsulfonyl)phenyl)-1H-benzo[d]imidazole]: the pIC50 on human TLR9 (setting [2]) is 6.61; on human TLR9 (setting [3]), 6.60; at human TLR7, 5.32; on human TLR8, < 4.30.
Regarding `Cc1cc(C2CCN(C3CCN(c4ccccc4)CC3)CC2)cc2c1nc(-c1ccc(S(C)(=O)=O)cc1)n2C` [Example 318, 1,4-dimethyl-2-(4-(methylsulfonyl)phenyl)-6-(1′-phenyl-[1,4′-bipiperidin]-4-yl)-1H-benzo[d]imidazole], the pIC50 was 6.57 on human TLR9 (setting [2]), 6.57 at human TLR9 (setting [3]), 4.99 at human TLR7 and < 4.30 on human TLR8.
With `CC(C)CN1C2CCC1CC(N1CCC(c3cc(F)c4nc(-c5ccc(S(C)(=O)=O)cc5)n(C5CC5)c4c3)CC1)C2` (single isomer, unassigned) [Example 322, 1-cyclopropyl-4-fluoro-6-(1-(8-isobutyl-8-azabicyclo[3.2.1]octan-3-yl)piperidin-4-yl)-2-(4-(methylsulfonyl)phenyl)-1H-benzo[d]imidazole], the pIC50 on human TLR9 (setting [2]) was 7.92; against human TLR9 (setting [3]), 7.92; on human TLR7, 5.85; on human TLR8, < 4.30.
On to `CS(=O)(=O)c1ccc(-c2nc3ccc(C4CCN(C5CCN(CC6COC6)CC5)CC4)c(F)c3[nH]2)cc1` [Example 183, 7-fluoro-2-(4-(methylsulfonyl)phenyl)-6-(1′-(oxetan-3-ylmethyl)-[1,4′-bipiperidin]-4-yl)-1H-benzo[d]imidazole], for which the negative-log IC50 (pIC50) on human TLR9 was 6.96; on human TLR9 (setting [2]), 6.96; at human TLR7, < 4.30; at human TLR8, < 4.30.
Turning to `COCCN1CCC(N2CCC(c3ccc4nc(-c5ccc(S(C)(=O)=O)cc5)n(C)c4c3F)CC2)CC1` [Example 265, 7-fluoro-6-(1′-(2-methoxyethyl)-[1,4′-bipiperidin]-4-yl)-1-methyl-2-(4-(methylsulfonyl)phenyl)-1H-benzo[d]imidazole], the pIC50 at human TLR9 is 6.00; at human TLR9 (setting [2]) it was 5.98; at human TLR7 it was 5.12; on human TLR8, < 4.30.
